What all share (assay): DTP human tumour cell line panel, 48 h
The subject of test [1] is MOLT-4 leukemia.
The test system of test [2] is HS 578T breast.
The test system of test [3] is OVCAR-4 ovarian.
Test [4] concerns A498 renal.
The subject of test [5] is TK-10 renal.
Test [6] deals with HCT-116 colon.
The test system of test [7] is A549 NSCLC.
The subject of test [8] is ACHN renal.
The test system of test [9] is NCI-H23 lung.
Test [10] concerns MCF7 breast.

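Five concentrations, 48 hours, 96-well plates. Abbreviation: GI50, concentration required for 50% inhibition of growth. TGI: concentration producing complete growth inhibition.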

`O=C(Nc1ccncc1)C(=O)c1cn(S(=O)(=O)c2ccccc2F)c2ccccc12`: the GI50 in [1] was 3.45 µM; in test [2], 5.27 µM; in test [3], 3.59 µM; in test [4] it was 5.47 µM; in test [5] it was 9.71 µM; in [6], 0.504 µM. In addition, the GI50 in test [7] was 13.5 µM; in [8], 5.21 µM; in [9] it was 0.965 µM; in test [10], 0.547 µM. Besides, the total growth inhibition concentration (TGI) is more than 45.7 µM in [1]; more than 100 µM in test [2]; more than 100 µM in test [3]; 63.3 µM in test [4]; more than 49.3 µM in test [5]; more than 37.8 µM in test [6]. For the same compound, the TGI is 59.8 µM in test [7], more than 70.9 µM in test [8], more than 34.8 µM in [9] and 27.5 µM in [10].
`CN(C)CCNC(=O)c1cc([N+](=O)[O-])ccn1`: the TGI in [1] was 49.3 µM; in test [2], more than 100 µM; in test [3] it was 43 µM; in test [4], more than 100 µM; in test [5], more than 100 µM; in test [6] it was 61.4 µM. The total growth inhibition concentration (TGI) was more than 100 µM in test [7], more than 100 µM in test [8], 47.1 µM in test [9] and 31.3 µM in test [10].
Take `Nc1ncc(-c2ccc(C(F)(F)F)cc2)c(NC2CCCCCC2)n1`: the GI50 in [1] is 23.3 µM; in [2], 25.5 µM; in test [3], 16.7 µM; in [4] it was 13.4 µM; in [5], 54.5 µM; in [6] it was 20.2 µM. Further, the GI50 is 16.5 µM in test [7], 33.8 µM in test [8], 20 µM in test [9] and 27.5 µM in test [10]. Also, the total growth inhibition concentration (TGI) in test [1] was 81.5 µM; in test [2], more than 100 µM; in test [3], more than 100 µM; in test [4], 79.3 µM; in [5] it was more than 100 µM; in [6], more than 100 µM. Also, the TGI in test [7], in [8], in test [9] and in test [10] was more than 100 µM in each case.
For the compound `Cc1ccc2c(=O)[nH]sc2c1`, the TGI in test [1] is 23.8 µM; in [2], 40 µM; in test [3] it was more than 100 µM; in test [4], more than 100 µM; in [5], 33.9 µM; in test [6], more than 100 µM. For the same compound, the TGI in test [7] worked out at 43.1 µM; in test [8], 21.6 µM; in [9] it was 42.4 µM; in [10] it was 36.1 µM.

Values taken from PubChem BioAssay (NCI).
